{"source": "patent US11813277B2", "about": "“Methods and agents for modulating inflammation” (The Regents of the University of California, priority 2018, dated 2023)", "key": {"BMDMs [1]": {"system": "BMDMs", "assay": "Intracellular free coenzyme A levels in BMDMs", "assay_type": "cell-based, mouse", "settings": "IL-4", "protocol": "On Day 6 of differentiation, BMDMs were seeded at 1.2×10^6 cells/well in 6-well plates. 24 hr later, BMDMs were mock-treated or co-treated with 20 ng/mL IL-4±200 μM etomoxir±500 μM CoA in DMEM supplemented with 5% FBS, 2 mM L-glutamine, 100 units/mL, […] penicillin/streptomycin, 500 μM of sodium pyruvate and 5% v/v conditioned media containing macrophage colony stimulating factor (M-CSF) for 20 hr. Prior to sample collections, cells were washed with 600 μL of 0.9% (w/v) NaCl twice. Three wells per replicate per treatment were combined in 2 mL centrifuge tubes and centrifuged at 500 g for 5 mins at 4° C. The supernatant was removed, and the cell pellet was re-suspended in 75 μL of ice-cold 0.7% (v/v) perchloric acid for 5 min. Samples were then centrifuged at 10,000 g for 7 mins at 4° C. and the resulting supernatant was adjusted to pH 7 with 2M NaOH and 500 mM K2HPO4. The coenzyme A concentration was determined with Coenzyme A Assay Kit following manufacturer's instructions (Sigma MAK034) using 40 μL of sample supernatant. Coenzyme A levels were normalized to total cellular protein (BCA method)."}, "Limonoids sigmodontis": {"system": "Limonoids sigmodontis", "assay": "Murine model of nematode infection", "settings": "mouse, in vivo"}, "acute liver injury": {"system": "acute liver injury", "assay": "Murine acute liver injury model", "assay_type": "in vivo"}, "[2]": {"system": "M(IL-4) polarization of BMDMs", "assay": "Flow cytometry of IL-4-associated cell surface markers in BMDMs", "assay_type": "cell-based, mouse", "protocol": "(§1) For all gene expression and flow cytometry experiments described below, day 6 BMDM were plated at 3×10^5 cell/well in 12-well plates. The next day, cells were treated with appropriate compounds (and duration as indicated in figures and below) in DMEM supplemented with 5% FBS, 2 mM L-glutamine, 100 units/mL, 100 μg/mL penicillin/streptomycin, 500 μM of sodium pyruvate and 5% v/v conditioned media containing macrophage colony stimulating factor (M-CSF).\n(§2) For flow cytometry experiments involving etomoxir (FIG. 1G, FIG. 2A, FIG. 2D, FIG. 3A, FIG. 3B, FIG. 3G, FIG. 3H): BMDMs were mock-treated (media replacement only) or treated with 20 ng/mL of IL-4±3 μM or 200 μM of etomoxir for 48 hr. When measuring expression of M(IL-4)-associated genes in response to etomoxir (FIG. 1H, FIG. 2B), BMDMs were mock-treated or treated with 20 ng/mL of IL4±etomoxir as indicated for 24 hr.\n(§3) For experiments involving respiratory chain inhibitors: BMDMs were mock-treated (media replacement only) or treated with 20 ng/mL of IL4±1.2 μM oligomycin (Oligo), 200 nM rotenone (Rot), 200 nM antimycin A (AntiA), 100 nM piericidin A (PierA), or 5 μM carboxyatractylate (CAT) for either 24 (FIG. 4G, FIG. 4H, FIG. 6G) or 48 hr (FIG. 4F, FIG. 7D). All inhibitors were given as co-treatments simultaneously with IL-4.\nFor experiments involving CoA supplementation (FIG. 10A, FIG. 10B, FIG. 10C, FIG. 10D, FIG. 10E, FIG. 9C, FIG. 9D): BMDMs were mock-treated (media replacement only) or treated with 20 ng/mL of IL4±etomoxir (concentration indicated in figures)±CoA (concentration indicated in figures) for 48 hr. Etomoxir and CoA were given as co-treatments simultaneously with IL-4.\nPrior to FACS analysis, BMDMs were detached using 350 μL of Accutase, followed by two washes with FACS buffer (PBS+1% (v/v) BSA+0.05% (w/v) sodium azide). Anti-mouse CD16/32 antibody was used at a dilution of 1:500, while all other antibodies were used at a dilution of 1:250. All flow cytometry data were captured using BD FACSVerse flow cytometer and analyzed using the FlowJo X 10.0.7r2 software. In all, 2×104 live events were acquired for each sample (gated on DAPIneg). For analysis, CD206+/CD71+ and CD206+/CD301+ populations were gated based on Fluorescence Minus One (FMO) controls."}, "BMDMs [3]": {"system": "BMDMs", "assay": "Basal mitochondrial respiration in intact BMDMs", "assay_type": "cell-based, mouse", "protocol": "All respirometry studies were conducted in either a Seahorse XF96 or XFe96 Analyzer. All experiments were conducted at 37° C., and at pH 7.4 (intact cells) or 7.2 (permeabilized cells and isolated mitochondria). Calculation of respiratory parameters was made according to standard protocols (Divakaruni, A. S., Paradyse, A., Ferrick, D. A., Murphy, A. N., and Jastroch, M. (2014a) Analysis and interpretation of microplate-based oxygen consumption and pH data. Meth. Enzym 547, 509-54), and all rates were corrected for non-mitochondrial respiration/background signal by subtracting the oxygen consumption rate insensitive to rotenone plus antimycin A.\nRespiration in intact BMDMs was measured in medium containing 8 mM glucose, 2 mM glutamine, 2 mM pyruvate, and 5 mM HEPES. Cells were plated at 5.0×10^4 cells/well and assayed after 48 hr. When measuring the response to IL-4, cells were treated with 20 ng/mL of IL-4 24 hr. after initial plating, and respiration was measured the following day (˜48 hr after initial seeding). […]"}, "diet-induced NASH": {"system": "diet-induced NASH", "assay": "Rat model of diet-induced NASH", "assay_type": "in vivo"}, "BMDMs [4]": {"system": "BMDMs", "assay": "Cellular ATP production rates from respirometry and lactate assay", "assay_type": "cell-based, mouse", "settings": "200 nM rotenone, IL-4 24 hr", "protocol": "Respiration in intact BMDMs was measured in medium containing 8 mM glucose, 2 mM glutamine, 2 mM pyruvate, and 5 mM HEPES. Cells were plated at 5.0×10^4 cells/well and assayed after 48 hr. When measuring the response to IL-4, cells were treated with 20 ng/mL of IL-4 24 hr. after initial plating, and respiration was measured the following day (˜48 hr after initial seeding). Respiration was measured in response to oligomycin (1 μM), FCCP (1.2 μM), and rotenone (0.2 μM) with antimycin A (1 μM).\nUnder conditions matching intact cell respirometry for BMDMs, the extracellular medium was harvested and lactate was analyzed as previously described (Mookerjee, S. A., Goncalves, R. L., Gerencser, A. A., Nicholls, D. G., and Brand, M. D. (2015). The contributions of respiration and glycolysis to extracellular acid production. Biochim et Biophys Acta. 1847, 171-81; Divakaruni, A. S., Wallace, M., Buren, C., Martyniuk, K., Andreyev, A. Y., Li, E., Fields, J. A., Cordes, T., Reynolds, I. J., Bloodgood, B. L., et al., (2017b) Inhibition of the mitochondrial pyruvate carrier protects from excitotoxic neuronal death. J. Cell Biol. 216, 1091-1105). […] The reaction velocity was measured after 2 min (340/460 nm excitation/emission). […]"}, "LCFA oxidation in BMDMs": {"system": "LCFA oxidation in BMDMs", "assay": "9,10-3H-palmitate oxidation (3H2O release) in BMDMs", "assay_type": "cell-based, mouse", "settings": "200 nM rotenone or 200 nM antimycin A, IL-4-stimulated", "protocol": "BMDMs at day 6 of differentiation were seeded at 3×10^5 cells/well in 12 well plates in BMDM media. The next day, cells were treated in DMEM containing 25 mM glucose supplemented with 5% FBS, 2 mM L-Glutamax, 100 units/mL, 100 μg/mL penicillin/streptomycin, 1 mM of sodium pyruvate, 1 mM carnitine, and 5% v/v conditioned media containing macrophage colony stimulating factor (M-CSF) under one of 5 conditions: control, 20 ng/mL of IL-4±3 μM or 200 μM of etomoxir, or 200 nM rotenone, or 200 nM antimycin A for 24 hr. Fatty acid oxidation was measured 24 hours later as previously described (Rognstad, R. (1991) Estimation of peroxisomal and mitochondrial fatty acid oxidation in rat hepatocytes using tritiated substrates. Biochem J 279:147-150, 1991; Cha, B. S., Ciaraldi, T. P., Park, K. S., Carter, L., Mudaliar, S. R., and Henry R R. (2005) Impaired fatty acid metabolism in type 2 diabetic skeletal muscle cells is reversed by PPARgamma agonists. Am J Physiol Endocrinol Metab. 289, E151-9) following a fluid change to DMEM with components as described above except 10 mM glucose and 0.2 μCi (final concentration of 5 μM) BSA-conjugated [9,10-3H]palmitic acid. No additional IL-4 was added at the time of this fluid change, but etomoxir, rotenone and antimycin A were added, and the plates were placed in a […] incubator at 37° C. for 3 hr. After incubation, a 100 μL aliquot of the culture medium was passed over an ion-exchange resin, and the column was washed twice with 0.75 ml of water. Free fatty acids were retained by the resin, whereas the tritium hydrolyzed from radiolabeled palmitate catabolism was released as labeled water, which passes freely through the resin, and is subsequently counted for radioactivity. All data are corrected for protein content in each well. There were 3 technical replicates for each condition, and 4 biological replicates arising from 4 separate animals."}, "[5]": {"system": "Relma, Mgl2, Ym1, Fabp4, Arg1 expression", "assay": "qPCR of IL-4-associated genes in BMDMs", "assay_type": "cell-based, mouse", "settings": "IL-4, 24 hr", "protocol": "as §1, §2, §3\nRNA was isolated with TRIzol, then cDNA was synthesized with high-capacity cDNA reverse transcription kit. KAPA SYBR FAST qPCR Master Mix kit and a LightCycler 480 were used for quantitative RT-PCR. Fold change related to the control group was calculated using […] with 36b4 as the reference gene."}, "[6]": {"settings": "500 μM CoA, absence of etomoxir"}}}
{"smiles": "CC(C)(COP(=O)(O)OP(=O)(O)OC[C@H]1O[C@@H](n2cnc3c(N)ncnc32)[C@H](O)[C@@H]1OP(=O)(O)O)[C@@H](O)C(=O)NCCC(=O)NCCS", "note": "[CoA, [(2R,3S,4R,5R)-5-(6-aminopurin-9-yl)-4-hydroxy-3-phosphonooxy-oxolan-2-yl]methyl [hydroxy-[(3R)-3-hydroxy-2,2-dimethyl-4-oxo-4-[[3-oxo-3-(2-sulfanylethylamino)propyl]amino]butoxy]phosphoryl] hydrogen phosphate]", "values": [{"measurement": "intracellular free CoA levels", "setting": "BMDMs [1]; 500 μM CoA with 200 μM etomoxir", "result": "could be restored"}, {"measurement": "intracellular free CoA levels", "setting": "BMDMs [1]; [6]", "result": "significantly increased"}, {"measurement": "parasite burden and replication", "setting": "Limonoids sigmodontis", "result": "reduce parasite burden and replication"}, {"measurement": "healing time and resolution of injury", "setting": "acute liver injury; intravenous", "result": "decrease healing time and improve the extent of resolution from the injury"}, {"measurement": "expression of alternative liver macrophage activation biomarkers", "setting": "acute liver injury; peritoneal macrophages and/or Kupffer cells", "result": "Increased expression"}, {"measurement": "rescue of cell surface marker expression", "setting": "[2]; 200 μM etomoxir, varying CoA", "result": "concentration-dependent function of exogenously added CoA"}, {"measurement": "reduction of CD206+/CD71+ cells upon etomoxir treatment", "setting": "[2]; 500 μM CoA with 200 μM etomoxir, IL-4", "result": "can be rescued"}, {"measurement": "IL-4-induced expression of CD206 and CD71", "setting": "[2]; [6]", "result": "significantly increased"}, {"measurement": "polarization", "setting": "[2]; CoA, absence of IL-4", "result": "no effect on polarization"}, {"measurement": "etomoxir-induced reduction in CD206+/CD71+ cells", "setting": "[2]; LysM-Cre Cpt1a-/-, LysM-Cre Cpt2-/-, CD11c-Cre Cpt1a-/- BMDMs, 200 μM etomoxir, 500 μM CoA", "result": "could be rescued"}, {"measurement": "basal respiration", "setting": "BMDMs [3]; CoA supplementation, BMDMs treated with excess etomoxir", "result": "did not alter basal respiration"}, {"measurement": "oxygen consumption", "setting": "BMDMs [3]; CoA with IL-4", "result": "does not enhance oxygen consumption"}]}
{"smiles": "CC(CNC(=O)[C@H](O)C(C)(C)CO)C(=O)NCCc1ccccc1", "note": "(stereo partly drawn) [alpha-methyl-N-phenethyl-pantothenamide]", "values": [{"measurement": "expression of alternative macrophage activation biomarkers", "setting": "diet-induced NASH; Kupffer cells and/or myeloid-derived precursors from the liver", "result": "Decreased expression"}, {"measurement": "inflammation and fibrosis in the liver", "setting": "diet-induced NASH; intravenous", "result": "reduce inflammation and fibrosis in the liver"}]}
{"smiles": "C=C(C)[C@H]1Cc2c(ccc3c2O[C@@H]2COc4cc(OC)c(OC)cc4[C@@H]2C3=O)O1", "note": "[rotenone]", "values": [{"measurement": "ATP production from oxidative phosphorylation", "setting": "BMDMs [4]", "result": "limited ATP production from oxidative phosphorylation"}, {"measurement": "overall rates of energy metabolism (ATP production)", "setting": "BMDMs [4]", "result": "maintain overall rates of energy metabolism"}, {"measurement": "3H2O release from 9,10-3H-palmitate", "setting": "LCFA oxidation in BMDMs", "result": "suppressed LCFA oxidation to levels in line with 200 μM etomoxir"}, {"measurement": "population of CD206+/CD71+ cells", "setting": "[2]; oxidative phosphorylation inhibitors co-treated with IL-4", "result": "none of the inhibitors of ATP synthesis or the electron transport chain significantly lowered"}, {"measurement": "IL-4-induced expression of Relma, Ym1, Mgl2", "setting": "[5]; electron transport chain inhibitors", "result": "failed to reduce"}, {"measurement": "expression of Ym1 and Arg1", "setting": "[5]; mitochondrial inhibitors", "result": "increased expression"}, {"measurement": "respiration at 24 hr", "setting": "BMDMs [3]; 1.2 μM oligomycin, 200 nM rotenone, 200 nM antimycin A, 100 nM piericidin A, 5 μM CAT", "result": "strongly reduced respiration"}]}
